# From patent US20150018360A1, “COMPOSITIONS AND METHODS FOR TREATING METABOLIC DISORDERS” (BIOMED VALLEY DISCOVERIES, INC., priority 2011, published 2015)
# Columns and labels:
# [1] = target: T1, human recombinant dipeptidyl dipeptidase-4 (DPP4) (Homo sapiens, UniProt P27487); assay: Human recombinant DPP4 assay with fluorogenic substrate GP-AMC; assay type: biochemical; settings: 10 μM; % of control; ns
# T1 construct: Cerep (contract laboratory that ran the assay)
# Experimental: DPP4 inhibitor K579 was used as a positive control. Assay was performed by Cerep (Bois l'Eveque, France).
# Inhibition is represented as % of control.
# [2] = test system: diet-induced obese (DIO) mice; assay: Oral glucose tolerance test (OGTT) in diet-induced obese mice; assay type: in vivo, mouse; settings: for glucose lowering effects in OGTT (glucose AUC): DIO C57BL/6 mice, 125 mg/kg i.p. once daily for 5 days
# From the text: High-fat diet feeding in rodents changes multiple biochemical and physiological parameters that reflect the biochemical and physiological changes observed in diet induced obesity (D10). Such diets induce dramatic changes in weight gain that are concomitant with elevations in serum cholesterol, lipids, and triglycerides. Moreover, these high fat diets can lead to atherosclerotic lesions as well as insulin resistance and dysregulation of glucose homeostatic mechanisms that are consistent with obesity induced changes in humans.
# Type II diabetes is characterized by high blood glucose levels in the presence of normal amounts of insulin. The animal model or type II diabetes used in these studies involves administering high levels of glucose and then measuring blood glucose levels over time. The test is designed to determine the ability of the experimental animal to maintain glucose homeostasis over time. Drugs that lower blood glucose levels in type II diabetic patients also lower blood glucose levels in this animal model of type II diabetes.
# Male C57BL/6J mice were fed a high fat diet for 5 weeks (age 6-11 weeks) prior to study. […] DIO mice were food deprived overnight prior to glucose load (1.5 g/kg, t0). Mice were treated with drug or vehicle 30 minutes before glucose load (t-30). Blood glucose was measured with a glucometer (Accu-Chek® Roche, Indianapolis, IN), from the tip of the tail in free moving mice, at 15 minutes before (t-15), 15 minutes after (t15), and 45 minutes after (t45) glucose load.
# In these studies, C57BL/6 mice were fed a high fat diet from 6 to 11 weeks of age, resulting in diet-induced obesity. […] After 5 days of dosing, animals were fasted overnight prior to an oral glucose tolerance test (OGTT). The morning after fasting, a baseline glucose level was measured, followed by compound or vehicle dosing. A second blood glucose level was measured 15 minutes later. At 30 minutes past the first glucose measurement, animals were challenged with a 1.5 g/kg glucose solution per os (p.o.), and blood glucose levels determined 15 and 45 minutes later. Areas under the curve were determined for the blood glucose levels, baselined at the first measurement.
# [3] = Body weight of DIO mice during 15-day treatment; assay type: in vivo, mouse; settings: either time-point or dose (data not shown)
# [4] = target: Kir6.2/SUR1 potassium channels (Homo sapiens, UniProt Q09428+Q14654); assay: Kir6.2/SUR1 potassium channel patch clamp (PatchXpress) in HEK293 cells
# Sequence of Kir6.2/SUR1 potassium channels (Q14654 whole entry): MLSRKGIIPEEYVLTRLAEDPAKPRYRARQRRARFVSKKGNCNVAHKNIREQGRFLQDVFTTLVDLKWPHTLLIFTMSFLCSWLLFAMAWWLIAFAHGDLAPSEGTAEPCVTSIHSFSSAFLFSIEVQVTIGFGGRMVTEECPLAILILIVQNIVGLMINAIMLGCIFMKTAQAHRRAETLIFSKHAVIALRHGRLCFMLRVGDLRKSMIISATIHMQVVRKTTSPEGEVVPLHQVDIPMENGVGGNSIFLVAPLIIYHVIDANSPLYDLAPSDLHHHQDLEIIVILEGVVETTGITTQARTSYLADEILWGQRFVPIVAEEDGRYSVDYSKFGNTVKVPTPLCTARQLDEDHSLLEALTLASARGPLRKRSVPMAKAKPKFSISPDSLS
# Sequence of Kir6.2/SUR1 potassium channels (Q09428 whole entry): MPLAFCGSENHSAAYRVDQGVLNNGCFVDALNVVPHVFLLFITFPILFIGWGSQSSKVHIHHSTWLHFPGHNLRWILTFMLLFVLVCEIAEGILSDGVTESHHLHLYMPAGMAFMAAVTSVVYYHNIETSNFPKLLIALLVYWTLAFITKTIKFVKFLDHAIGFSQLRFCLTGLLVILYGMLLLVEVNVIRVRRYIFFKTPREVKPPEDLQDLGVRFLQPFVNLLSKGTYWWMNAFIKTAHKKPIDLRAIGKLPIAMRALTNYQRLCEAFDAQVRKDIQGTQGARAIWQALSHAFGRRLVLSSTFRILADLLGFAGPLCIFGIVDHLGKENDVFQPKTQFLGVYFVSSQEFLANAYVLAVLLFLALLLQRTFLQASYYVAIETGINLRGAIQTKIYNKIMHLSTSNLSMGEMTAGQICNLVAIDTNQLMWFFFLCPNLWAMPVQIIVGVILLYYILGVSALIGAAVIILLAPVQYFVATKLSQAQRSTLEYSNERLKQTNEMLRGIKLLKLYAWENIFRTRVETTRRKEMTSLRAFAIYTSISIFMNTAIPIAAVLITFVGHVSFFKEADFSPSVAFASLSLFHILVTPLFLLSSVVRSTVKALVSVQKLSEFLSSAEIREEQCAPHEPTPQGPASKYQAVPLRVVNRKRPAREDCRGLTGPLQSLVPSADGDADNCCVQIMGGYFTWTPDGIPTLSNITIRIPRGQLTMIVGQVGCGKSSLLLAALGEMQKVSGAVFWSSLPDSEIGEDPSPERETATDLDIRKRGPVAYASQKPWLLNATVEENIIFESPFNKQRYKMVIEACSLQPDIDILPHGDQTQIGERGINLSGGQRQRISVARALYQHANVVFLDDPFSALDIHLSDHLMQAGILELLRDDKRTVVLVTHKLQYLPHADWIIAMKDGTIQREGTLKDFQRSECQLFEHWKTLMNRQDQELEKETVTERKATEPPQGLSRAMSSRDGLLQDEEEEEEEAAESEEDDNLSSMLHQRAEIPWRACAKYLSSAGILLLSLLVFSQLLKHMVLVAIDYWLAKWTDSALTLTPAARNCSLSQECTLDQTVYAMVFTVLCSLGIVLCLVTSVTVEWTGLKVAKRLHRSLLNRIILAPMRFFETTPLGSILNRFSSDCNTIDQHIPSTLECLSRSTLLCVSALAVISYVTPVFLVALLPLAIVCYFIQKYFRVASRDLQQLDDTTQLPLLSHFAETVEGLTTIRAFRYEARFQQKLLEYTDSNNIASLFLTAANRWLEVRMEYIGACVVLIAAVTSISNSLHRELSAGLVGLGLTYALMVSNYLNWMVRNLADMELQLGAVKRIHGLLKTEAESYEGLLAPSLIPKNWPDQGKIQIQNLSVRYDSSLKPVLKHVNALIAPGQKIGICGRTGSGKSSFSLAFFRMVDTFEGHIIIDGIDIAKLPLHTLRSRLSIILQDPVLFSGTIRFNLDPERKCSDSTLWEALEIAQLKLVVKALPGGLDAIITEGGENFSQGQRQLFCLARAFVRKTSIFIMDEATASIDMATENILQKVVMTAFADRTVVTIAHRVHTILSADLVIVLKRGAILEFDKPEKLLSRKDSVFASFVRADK
# From the text: Inhibition is represented as % of control. “ns” represents not statistically significant or P>0.05.
# dopamine D2/D3 receptors = settings: in-vitro assays; cited from earlier work
# active GLP-1 = assay: Active GLP-1 in hepatoportal vein blood of normal mice; assay type: in vivo, mouse; settings: 10 mg/kg i.p., 15 min after glucose bolus
# Experimental: (§1) Normal male 12 week old C57BL/6J mice were food deprived 6 hours before the glucose load (1.5 g/kg, t0). Mice were treated with drug or vehicle 30 minutes before glucose load (t-30). Blood glucose was measured with a glucometer (Accu-Chek® Roche, Nutley, N.J.), from the tip of the tail in free moving mice, at t-30, t0, t15, t30, t60, t90, t120 minutes. Blood collection (about 20 μl) was performed from the tip of the tail at t-30, t15 and t30 for plasma insulin determination (ELISA kit, Alpco Diagnostics, Salem, N.H.). After a 1-week washout period, mice were randomly allocated into 2 groups. Mice were food deprived 6 hours before the glucose load (1.5 g/kg, t0) was performed. Mice were treated with drug or vehicle 30 minutes before glucose load. Blood glucose was measured at t0 and t15 minutes. At t15, mice were anesthetized with isoflurane and blood was collected from the hepatoportal vein (on EDTA/diprotin/ aprotinin anticoagulant cocktail). Plasma was rapidly prepared and stored at -80° C. The active form of GLP-1 was then measured (ELISA kit, Millipore, Billerica, Mass.).
# normal mice = assay: OGTT with plasma insulin determination in normal mice; assay type: in vivo, mouse; settings: single dose 10 mg/kg i.p.
# Experimental: as §1
# [5] = Pharmacokinetic analysis in mice (plasma, LC/MS/MS); assay type: in vivo, mouse; settings: normal male mice, 10 mg/kg i.p.
# Experimental: Male C57B1/6 mice (n =4, two cohorts) were treated with drug and at the designated times after dosing (5, 15, 30, 60 and 120), whole blood was collected via the retro-orbital sinus in heparanized tubes and plasma prepared by centrifugation at 1650 relative centrifugal force (RCF) at 4° C. Plasma samples were extracted by a standard protocol using an acetonitrile/protein precipitation method, and levels of test agent were analyzed by LC/MS/MS.
# serum prolactin levels = settings: rat, cited from earlier work; for increase in serum prolactin levels: marker of dopamine D2 receptor blockade
# [6] = test system: circulating prolactin levels; assay: Prolactin assay (plasma prolactin ELISA after OGTT); assay type: in vivo, mouse; settings: DIO mice, once daily i.p. for 5 days, plasma 45 min after glucose load
# Experimental: Mice were treated with drug or vehicle 30 minutes before an OGTT (t-30). At 45 minutes after glucose load (t45), mice were bled via retro-orbital sinus into EDTA microfuge tubes. Plasma was rapidly prepared and stored at −80° C. until measurement of prolactin levels (ELISA kit, Genway Biotech, San Diego, Calif.).
# T1 sequence (P27487 whole entry): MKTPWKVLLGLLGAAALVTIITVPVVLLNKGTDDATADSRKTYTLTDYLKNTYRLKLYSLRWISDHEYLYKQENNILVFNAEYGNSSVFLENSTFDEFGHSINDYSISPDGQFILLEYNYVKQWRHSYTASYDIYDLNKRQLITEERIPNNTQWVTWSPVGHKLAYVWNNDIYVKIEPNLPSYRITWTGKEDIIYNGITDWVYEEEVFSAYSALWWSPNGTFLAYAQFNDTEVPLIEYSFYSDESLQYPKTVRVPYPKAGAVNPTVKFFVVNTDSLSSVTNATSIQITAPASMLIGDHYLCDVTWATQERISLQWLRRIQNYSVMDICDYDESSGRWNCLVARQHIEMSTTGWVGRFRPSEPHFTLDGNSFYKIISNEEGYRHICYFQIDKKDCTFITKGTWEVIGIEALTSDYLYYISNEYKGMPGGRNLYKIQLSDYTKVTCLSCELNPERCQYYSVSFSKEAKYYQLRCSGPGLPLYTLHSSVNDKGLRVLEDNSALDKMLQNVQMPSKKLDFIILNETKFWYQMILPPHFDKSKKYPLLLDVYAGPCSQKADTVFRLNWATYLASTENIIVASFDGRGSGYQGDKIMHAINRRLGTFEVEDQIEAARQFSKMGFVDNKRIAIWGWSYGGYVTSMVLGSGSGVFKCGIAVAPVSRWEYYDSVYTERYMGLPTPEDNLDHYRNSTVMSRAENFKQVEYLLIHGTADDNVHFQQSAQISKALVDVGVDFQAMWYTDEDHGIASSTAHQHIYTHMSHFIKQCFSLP
compound,measurement,setting,value
"CCN1CCCC1CNC(=O)c1cc(S(=O)(=O)CC)c(N)cc1OC (racemic) [(R/S)-amisulpride, amisulpride]",% inhibition of DPP4,[1],1.9 (2.0) %
same,glucose lowering effects in OGTT (glucose AUC),[2],glucose lowering effects
same,fasting blood glucose levels,"[2]; DIO mice, 20 mg/kg, following 5 days of treatment, P<0.05 vs vehicle",158.7 ± 7.5 mg/dL
same,glucose excursion during the OGTT,"[2]; DIO mice, once daily i.p. for 15 days, both amisulpride doses, OGTT on days 5 and 15",significant reduction
same,changes in body weight,[3],No changes
same,% inhibition of Kir6.2/SUR1,"[4]; 10 μM, HEK293 cells, channel activated with 300 μM diazoxide, % of control, ns",3.4 (2.4) %
same,effect on the sulphonylurea receptor in-vitro,[4]; in-vitro (Table 5),unaffected
CCN1CCCC1CNC(=O)c1cc(S(N)(=O)=O)ccc1OC (racemic) [(R/S)-sulpride],glucose lowering effects in OGTT (glucose AUC),[2],glucose lowering effects
"CCN1CCC[C@@H]1CNC(=O)c1cc(S(=O)(=O)CC)c(N)cc1OC [(R)-amisulpride, (R)(+)-amisulpride]",times less potent than (S)-amisulpride in displacing dopamine D2/D3 receptor ligands,dopamine D2/D3 receptors,20-40 times
same,active form GLP-1 levels from the hepatic portal vein,active GLP-1,unchanged
same,increase in circulating insulin levels compared to vehicle,normal mice; OGTT,approximately 2.5 fold
same,glucose excursions,normal mice; vs vehicle,significantly decreased
same,maximal plasma drug levels,[5],did not exceed concentrations used in the in vitro assays
same,increase in serum prolactin levels,serum prolactin levels,1 fold
same,"increase in ED50 required to reach maximal effect on prolactin, compared to (S)-amisulpride",serum prolactin levels,40 fold
same,ED50 for effect on circulating prolactin levels,[6],1.5 mg/kg
"CCN1CCC[C@H]1CNC(=O)c1cc(S(=O)(=O)CC)c(N)cc1OC [(S)-amisulpride, (S)(−)-amisulpride]",increase in serum prolactin levels,serum prolactin levels,4 fold
same,ED50 for effect on circulating prolactin levels,[6],0.01 mg/kg
